# Columns and labels:
# HDAC1 = HDAC1 (Homo sapiens, UniProt Q13547); experiment: Measurement of biochemical activities of HDAC (fluorescently-labeled acetylated lysine substrate); details: read-out: IC50 HDAC1
# Experimental: (§1) 1. Measurement principles: the measurement of biochemical activities of compounds is determined according to the degree of the compounds inhibiting the deacylation of HDAC enzyme. After the fluorescently-labeled substrate containing acetylated lysine side chain reacts with the HDAC enzyme, the fluorogenic substrate is deacetylated. After the deacetylated fluorescently-labeled substrate is cracked by the enzyme, a fluorescent substance is released. The fluorescent substance generates emitting light of 460 nm under the excitation of light of 360 nm.
# (§2) 2. Detailed steps: the substrate of HDAC is diluted to […] (the reaction concentration is […]) with a reaction buffer. HDAC enzyme is diluted to a proper concentration. The compounds to be detected in different concentrations are added. The mixture reacts for 30 min at 37. Then the developer with the same volume and twice concentration of the substrate is added into the mixture. The mixture is incubated for 15 min at room temperature. Finally, the reading is measured with a micro plate scanner. The excitation light is 360 nm, the emitting light is 460 nm, and the data is processed with Prime 4 software.
# HDAC7 = target: T1, HDAC7 (Homo sapiens, UniProt Q8WUI4); experiment: as above
# T1 sequence (Q8WUI4 1-952): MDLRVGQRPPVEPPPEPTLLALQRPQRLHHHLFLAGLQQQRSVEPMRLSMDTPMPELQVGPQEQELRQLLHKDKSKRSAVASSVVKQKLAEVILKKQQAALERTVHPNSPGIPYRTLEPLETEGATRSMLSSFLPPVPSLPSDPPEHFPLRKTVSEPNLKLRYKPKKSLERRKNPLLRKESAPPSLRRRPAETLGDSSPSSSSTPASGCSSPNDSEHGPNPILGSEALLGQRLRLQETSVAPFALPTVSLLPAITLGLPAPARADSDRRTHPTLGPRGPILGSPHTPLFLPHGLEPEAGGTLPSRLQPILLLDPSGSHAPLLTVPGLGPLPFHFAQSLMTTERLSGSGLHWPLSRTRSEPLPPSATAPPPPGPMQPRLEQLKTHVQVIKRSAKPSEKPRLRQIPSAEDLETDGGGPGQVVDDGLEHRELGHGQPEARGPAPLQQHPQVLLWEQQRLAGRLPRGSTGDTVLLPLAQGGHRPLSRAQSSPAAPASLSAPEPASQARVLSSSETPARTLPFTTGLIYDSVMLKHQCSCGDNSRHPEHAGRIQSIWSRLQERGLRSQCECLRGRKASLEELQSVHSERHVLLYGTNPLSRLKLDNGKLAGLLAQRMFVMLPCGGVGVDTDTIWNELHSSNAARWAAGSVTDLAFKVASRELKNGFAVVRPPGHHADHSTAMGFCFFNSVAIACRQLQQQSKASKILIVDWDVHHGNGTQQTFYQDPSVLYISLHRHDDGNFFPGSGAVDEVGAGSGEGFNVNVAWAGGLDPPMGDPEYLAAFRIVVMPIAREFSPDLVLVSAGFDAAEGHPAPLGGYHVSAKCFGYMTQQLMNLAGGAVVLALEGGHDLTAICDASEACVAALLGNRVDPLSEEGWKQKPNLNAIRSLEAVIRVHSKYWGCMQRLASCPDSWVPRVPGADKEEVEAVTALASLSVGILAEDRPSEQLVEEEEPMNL
# Experimental: as §1, §2
# [1] = tested on: DU145 (human prostate cancer cells); experiment: MTT cancer cell growth inhibition; assay type: cell-based; details: DU-145, 72 h
# Text: (§3) 1. Experimental principles: the inhibition of cancer cell growth with compounds is detected by an MTT method. The principle of the MTT method is as follows: yellow thiazolyl blue may penetrate through cell membranes and enter into cells, succinate dehydrogenase in living cell mitochondria may reduce exogenous MTT into water-insoluble ianthinus acicular Formazan crystals which deposit in the cells, the crystals can be dissolved with dimethyl sulfoxide (DMSO), the optical density of the crystals is detected with an enzyme-linked immunometric meter at the wavelength of 490 nm/570 nm, and the number of cells can be indirectly reflected.
# (§4) 2. Experimental materials: the used cancer cell lines are Hela (human cervical cancer cells), MCF-7 (human breast cancer cells), BGC-823 (human gastric cancer cells), A549 (human lung cancer cells), HT1080 (human fibrosarcoma cells), A431 (human epidermal squamous cell carcinoma cells), HUVEC (human umbilical vein endothelial cells), DU145 (human prostate cancer cells), K562 (human leukemia cells), U937 (human leukemia cells), Pac-1 (human pancreatic cancer cells), and MOLT-4 (human acute lymphoblastic leukemia cells), which are cultured with a DMEM+10% FBS culture medium or a 1640+10% FBS culture medium, respectively.
# (§5) Experimental groups: 190 μl cell suspension+10 μl pharmaceuticals in different concentrations (the final concentration is 10^−5-10^−10M)
# (§6) Negative control group: 190 μl cell suspension+10 μl 2% DMSO (the final concentration of DMSO is 0.1%)
# (§7) a) Cells are inoculated on a 96-pore plate, with 1500 cells and 190 μl for each hole, and cultured overnight in a 5% CO2 incubator at 37.
# (§8) b) 10 μl of different pharmaceuticals is added into each hole the next day, with the final concentration of the pharmaceuticals of 10^−5-10^−10M and three parallel holes, and incubated for 72 h in a 5% CO2 incubator at 37.
# (§9) c) 20 μl of 5 mg/mL MTT is added into each hole, and incubated for 4 h in a 5% CO2 incubator at 37.
# (§10) d) Supernatant is removed. 100 μl of DMSO is added into each hole and vibrated.
# (§11) e) The reading is 570 nm. The cell survival rate is calculated.
# [2] = tested on: MOLT-4 (human acute lymphoblastic leukemia cells); experiment: MTT cancer cell growth inhibition; assay type: cell-based; details: 72 h
# Text: as §3, §4, §5, §6, §7, §8, §9, §10, §11
# [3] = tested on: HT1080 (human fibrosarcoma cells); experiment: MTT cancer cell growth inhibition; assay type: cell-based; details: HT-1080, 72 h
# Text: as §3, §4, §5, §6, §7, §8, §9, §10, §11
# PANC-1 = experiment: MTT cancer cell growth inhibition; assay type: cell-based; details: Homo sapiens, 72 h
# Text: as §3, §4, §5, §6, §7, §8, §9, §10, §11
# [4] = tested on: BGC-823 (human gastric cancer cells); experiment: MTT cancer cell growth inhibition; assay type: cell-based; details: 72 h, read-out: GI50 BGC823
# Text: as §3, §4, §5, §6, §7, §8, §9, §10, §11
# [5] = tested on: Hela (human cervical cancer cells); experiment: MTT cancer cell growth inhibition; assay type: cell-based; details: 72 h
# Text: as §3, §4, §5, §6, §7, §8, §9, §10, §11
# [6] = tested on: U937 (human leukemia cells); experiment: MTT cancer cell growth inhibition; assay type: cell-based; details: U-937, 72 h
# Text: as §3, §4, §5, §6, §7, §8, §9, §10, §11
# [7] = tested on: A549 (human lung cancer cells); experiment: MTT cancer cell growth inhibition; assay type: cell-based; details: 72 h
# Text: as §3, §4, §5, §6, §7, §8, §9, §10, §11
# [8] = tested on: MCF-7 (human breast cancer cells); experiment: MTT cancer cell growth inhibition; assay type: cell-based; details: MCF7, 72 h
# Text: as §3, §4, §5, §6, §7, §8, §9, §10, §11
# Incap = experiment: MTT cancer cell growth inhibition; assay type: cell-based; details: 72 h
# Chain of HDAC1 (Q13547 whole entry, species assumed): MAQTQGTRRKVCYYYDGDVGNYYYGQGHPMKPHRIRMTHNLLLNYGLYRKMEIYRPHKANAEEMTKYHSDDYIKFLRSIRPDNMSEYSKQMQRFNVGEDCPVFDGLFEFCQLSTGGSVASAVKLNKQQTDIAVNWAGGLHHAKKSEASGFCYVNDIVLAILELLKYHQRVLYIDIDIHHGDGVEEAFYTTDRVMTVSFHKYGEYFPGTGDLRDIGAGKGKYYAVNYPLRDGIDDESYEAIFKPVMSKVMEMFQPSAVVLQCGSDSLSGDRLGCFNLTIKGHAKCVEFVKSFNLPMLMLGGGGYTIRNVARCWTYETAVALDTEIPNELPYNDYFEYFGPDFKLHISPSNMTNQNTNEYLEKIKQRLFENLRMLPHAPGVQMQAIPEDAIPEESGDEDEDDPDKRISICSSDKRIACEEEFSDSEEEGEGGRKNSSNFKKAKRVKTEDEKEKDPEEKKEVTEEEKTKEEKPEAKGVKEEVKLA
Structure (SMILES),IC50 (HDAC1),IC50 HDAC7 (HDAC7),GI50 [1],GI50 [2],GI50 [3],GI50 (PANC-1),GI50 [4],GI50 [5],GI50 [6],GI50 [7],GI50 [8],GI50 (Incap)
C/C=C1\NC(=O)c2csc(n2)CNC(=O)C[C@@H](/C=C/CCS)OC(=O)[C@H](C(C)C)NC1=O [Compound 6-1],< 0.1 µM,no activity,34 nM,650 nM,50 nM,230 nM,0.36 µM,600 nM,5 nM,100 nM,59 nM,42 nM
C/C=C1\NC(=O)c2csc(n2)CNC(=O)C[C@@H](/C=C/CCSC(=O)CCCCCCC)OC(=O)[C@H](C(C)C)N(C)C1=O [Compound 5-2],< 10 µM,no activity,6410 nM,10300 nM,1050 nM,21400 nM,1.3 µM,350 nM,20 nM,240 nM,690 nM,5030 nM
CCCCCCCC(=O)SCC/C=C/[C@@H]1CC(=O)NCc2nc(cs2)C(=O)NCC(=O)N[C@@H](C(C)C)C(=O)O1 [Compound 3-3],< 10 µM,no activity,50 nM,2120 nM,60 nM,4130 nM,5.94 µM,450 nM,140 nM,1090 nM,1200 nM,450 nM
C/C=C1\NC(=O)c2cccc(c2)CNC(=O)C[C@@H](/C=C/CCSC(=O)CCCCCCC)OC(=O)[C@H](C(C)C)NC1=O [Compound 2-6],< 10 µM,no activity,560 nM,64500 nM,12000 nM,45000 nM,56.2 µM,500 nM,12600 nM,4200 nM,650 nM,11600 nM
C/C=C1\NC(=O)c2csc(n2)CNC(=O)C[C@@H](/C=C/CCSC(=O)Cc2ccccc2)OC(=O)[C@H](C(C)C)NC1=O [Compound 6-4],< 10 µM,no activity,420 nM,2650 nM,1330 nM,1250 nM,2.55 µM,500 nM,6350 nM,4600 nM,690 nM,630 nM
C/C=C1\NC(=O)c2csc(n2)[C@H](Cc2ccccc2)NC(=O)C[C@@H](/C=C/CCSC(=O)CCCCCCC)OC(=O)[C@H](C(C)C)NC1=O [Compound 4-3],< 10 µM,no activity,140 nM,30 nM,3030 nM,10 nM,7.12 µM,1060 nM,650 nM,4660 nM,2550 nM,1020 nM
C/C=C1\NC(=O)c2csc(n2)CNC(=O)C[C@@H](/C=C/CCSC(=O)CCCCCCC)OC(=O)[C@H](CC(C)C)NC1=O [Compound 1-11],< 0.1 µM,no activity,6 nM,10 nM,80 nM,800 nM,0.16 µM,100 nM,9 nM,5090 nM,90 nM,30 nM
C/C=C1\NC(=O)c2csc(n2)CNC(=O)C[C@@H](/C=C/CCSC(=O)CCO)OC(=O)[C@H](C(C)C)NC1=O [Compound 6-5],< 10 µM,no activity,695 nM,268 nM,1650 nM,1640 nM,26.5 µM,540 nM,2660 nM,365 nM,4120 nM,450 nM
C/C=C1\NC(=O)c2coc(n2)CNC(=O)C[C@@H](/C=C/CCSC(=O)CCCCCCC)OC(=O)[C@H](C(C)C)NC1=O [Compound 2-1],< 0.1 µM,no activity,50 nM,100 nM,4100 nM,2060 nM,5 µM,200 nM,1300 nM,900 nM,500 nM,2010 nM
